This is an account of results in patent US12098145B2 (Libra Therapeutics, Inc., priority 2022, dated 2024).

Like-named read-outs stand apart in the source and are kept apart here.

Experiment [1] deals with TFEB. The experiment is described as follows: TFEB translocation assay (TFEB reporter in U2OS cells, imaging). In kind it is cell-based. The following applies: Homo sapiens; U2OS cell line with TFEB reporter, 2 hours incubation, nucleus to cytoplasm ratio, normalized to Torin-1; read-out: TFEB Translocation pEC50 (converted). In a few lines: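 U2OS cells stably expressing mRFP-fused TFEB reporter, switched to Opti-MEM then treated 2 h at 37 °C with compounds (0.5% DMSO, 0.015% Tween 80). Hoechst-stained, PFA-fixed cells imaged at 20×; nucleus/cytoplasm intensity ratio per well normalized to Torin-1 (100%) and DMSO (0%).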

Experiment [2] deals with T1, TRPML1 (Homo sapiens, UniProt Q9GZU1).
T1 construct: expressed in transfected cells; host or cells: HEK T-REx cells stably expressing GCaMP6f and TRPML1
T1 sequence (Q9GZU1 whole entry): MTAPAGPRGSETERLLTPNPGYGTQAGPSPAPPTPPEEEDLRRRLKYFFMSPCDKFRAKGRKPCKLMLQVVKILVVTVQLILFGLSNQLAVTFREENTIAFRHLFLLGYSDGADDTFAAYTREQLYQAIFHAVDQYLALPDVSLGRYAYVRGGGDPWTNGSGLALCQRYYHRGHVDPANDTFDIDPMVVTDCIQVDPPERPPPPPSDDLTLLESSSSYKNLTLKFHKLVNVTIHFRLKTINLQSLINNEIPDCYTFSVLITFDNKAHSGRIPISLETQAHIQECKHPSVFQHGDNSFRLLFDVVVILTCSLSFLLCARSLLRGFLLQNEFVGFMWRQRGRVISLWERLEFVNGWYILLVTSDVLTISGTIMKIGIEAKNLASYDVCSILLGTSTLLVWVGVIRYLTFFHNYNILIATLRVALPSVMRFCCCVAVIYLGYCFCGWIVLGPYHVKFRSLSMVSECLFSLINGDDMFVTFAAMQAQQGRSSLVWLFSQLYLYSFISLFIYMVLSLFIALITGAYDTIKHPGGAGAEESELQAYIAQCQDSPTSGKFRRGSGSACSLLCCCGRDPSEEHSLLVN
The experiment can be described thus: Cellular TRPML1 assay (FLIPR, GCaMP6f calcium read-out). The experiment is classed as cell-based. The method, boiled down:
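HEK T-REx cells stably expressing TRPML1 and GCaMP6f, seeded 24 h before in Optimem + 0.5% FBS. After ~10 min pre-incubation at room temperature, compounds in Ca2+-free Tyrode's buffer were injected on FLIPR Tetra (final DMSO 0.5%). Calcium fluorescence kinetics followed for 300 s.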

[3] abbreviates: HEKT-REx/GCaMP6f/TRPML1 cells, FLIPR TETRA, kinetic response over 300 seconds, read-out: TRPML1 FLIPR pEC50 (converted).

`CCCc1oc(N2CCC3CCCC32)nc1C(=O)Nc1cc(F)c(OC2CC3C[C@H]3C2)c(F)c1` (stereo partly drawn) [Example 275, N-(4-(cis-bicyclo[3.1.0]hexan-3-yloxy)-3,5-difluorophenyl)-2-(hexahydrocyclopenta[b]pyrrol-1(2H)-yl)-5-propyloxazole-4-carboxamide]: the EC50 in experiment [1] and in experiment [2] (setting [3]) was 0.01 to 1 µM throughout.

As for `CC1(C)CN(c2nc(C(=O)Nc3ccc(OC4CCC5CC54)c(F)c3)c(CC(F)(F)F)o2)C1` (stereo not drawn) [Example 140, N-(4-(bicyclo[3.1.0]hexan-2-yloxy)-3-fluorophenyl)-2-(3,3-dimethylazetidin-1-yl)-5-(2,2,2-trifluoroethyl)oxazole-4-carboxamide], the EC50 is 0.01 to 1 µM in experiment [1] and 1 to 10 µM in experiment [2] (setting [3]).

`O=C(Nc1ccc(OC2COCC2(F)F)c(F)c1)c1nc(N2CCCC2)oc1CC(F)(F)F` (racemic) [Example 71, N-(4-((4,4-difluorotetrahydrofuran-3-yl)oxy)-3-fluorophenyl)-2-(pyrrolidin-1-yl)-5-(2,2,2-trifluoroethyl)oxazole-4-carboxamide]: the EC50 in experiment [1] and in experiment [2] (setting [3]) was 0.01 to 1 µM throughout.

Take `CC1CCCN1c1nc(C(=O)Nc2ccc(OC3CCCC3)c(F)c2)c(CC(F)(F)F)o1` (stereo not drawn) [Example 54, N-(4-(cyclopentyloxy)-3-fluorophenyl)-2-(2-methylpyrrolidin-1-yl)-5-(2,2,2-trifluoroethyl)oxazole-4-carboxamide]: the figures for the EC50 in experiment [1] and in experiment [2] (setting [3]) were 10 to 100 µM and 1 to 10 µM, respectively.

Turning to `CCC1(COC)CN(c2nc(C(=O)Nc3cc(F)c(O[C@@H]4C[C@@H]5C[C@@H]5C4)c(F)c3)c(CC(F)(F)F)o2)C1` [Example 165, N-(4-(cis-bicyclo[3.1.0]hexan-3-yloxy)-3,5-difluorophenyl)-2-(3-ethyl-3-(methoxymethyl)azetidin-1-yl)-5-(2,2,2-trifluoroethyl)oxazole-4-carboxamide], the EC50 in experiment [1] and in experiment [2] (setting [3]) was 0.01 to 1 µM in each case.

On to `COC1(C)CN(c2nc(C(=O)Nc3cc(C)c(O[C@@H]4C[C@@H]5C[C@@H]5C4)c(F)c3)c(CC(F)(F)F)o2)C1` [Example 164, N-(4-(cis-bicyclo[3.1.0]hexan-3-yloxy)-3-fluoro-5-methylphenyl)-2-(3-methoxy-3-methylazetidin-1-yl)-5-(2,2,2-trifluoroethyl)oxazole-4-carboxamide], for which the EC50 in experiment [1] and in experiment [2] (setting [3]) was 0.01 to 1 µM in each case.

Consider `CC(C)OCc1oc(N2CCCC2)nc1C(=O)Nc1ccc(N2CCCCC2)c(F)c1` [Example 108, N-(3-fluoro-4-(piperidin-1-yl)phenyl)-5-(isopropoxymethyl)-2-(pyrrolidin-1-yl)oxazole-4-carboxamide], for which the EC50 was 0.01 to 1 µM in experiment [1] and 1 to 10 µM in experiment [2] (setting [3]).

Regarding `CCc1oc(N2CC3CCC3C2)nc1C(=O)Nc1cc(F)c(OC2CC3C[C@H]3C2)c(F)c1` (stereo partly drawn) [Example 241, N-(4-(cis-bicyclo[3.1.0]hexan-3-yloxy)-3,5-difluorophenyl)-2-(3-azabicyclo[3.2.0]heptan-3-yl)-5-ethyloxazole-4-carboxamide], the EC50 in experiment [1] and in experiment [2] (setting [3]) was 0.01 to 1 µM in each case.

Consider `CCC1(OC)CN(c2nc(C(=O)Nc3ccc(O[C@@H]4C[C@@H]5C[C@@H]5C4)c(F)c3)c(CC(F)(F)F)o2)C1` [Example 159, N-(4-(cis-bicyclo[3.1.0]hexan-3-yloxy)-3-fluorophenyl)-2-(3-ethyl-3-methoxyazetidin-1-yl)-5-(2,2,2-trifluoroethyl)oxazole-4-carboxamide], for which the EC50 in experiment [1] and in experiment [2] (setting [3]) was 0.01 to 1 µM each time.

With `Cc1oc(N2CCOCC2)nc1C(=O)Nc1ccc(N2CCCCC2)c(F)c1` [Example 116, N-(3-fluoro-4-(piperidin-1-yl)phenyl)-5-methyl-2-morpholinooxazole-4-carboxamide], the EC50 in experiment [1] and in experiment [2] (setting [3]) was 10 to 100 µM throughout.

In the case of `Cc1oc(-n2cccn2)nc1C(=O)Nc1ccc(N2CCCCC2)c(F)c1` [Example 118, N-(3-fluoro-4-(piperidin-1-yl)phenyl)-5-methyl-2-(1H-pyrazol-1-yl)oxazole-4-carboxamide], the EC50 was 1 to 10 µM in experiment [1] and 10 to 100 µM in experiment [2] (setting [3]).

Take `CCN(C)Cc1oc(N2CC(CC)(OC)C2)nc1C(=O)Nc1cc(F)c(OC2CC3CC(C3)C2)c(F)c1` (stereo not drawn) [Example 302, N-(4-(bicyclo[3.1.1]heptan-3-yloxy)-3,5-difluorophenyl)-5-((ethyl(methyl)amino)methyl)-2-(3-ethyl-3-methoxyazetidin-1-yl)oxazole-4-carboxamide]: the EC50 in experiment [1] and in experiment [2] (setting [3]) was 0.01 to 1 µM each time.

For the compound `CCc1oc(N2CC(C)(OC)C2)nc1C(=O)Nc1ccc(O[C@@H]2C[C@@H]3C[C@@H]3C2)c(Cl)c1` [Example 249, N-(4-(cis-bicyclo[3.1.0]hexan-3-yloxy)-3-chlorophenyl)-5-ethyl-2-(3-methoxy-3-methylazetidin-1-yl)oxazole-4-carboxamide], the EC50 in experiment [1] and in experiment [2] (setting [3]) was 0.01 to 1 µM in each case.

For the compound `O=C(Nc1ccc(OC2CCCC2(F)F)c(F)c1)c1nc(N2CCC3(CCC3)C2)oc1CC(F)(F)F` (stereo not drawn) [Example 15, N-(4-((2,2-difluorocyclopentyl)oxy)-3-fluorophenyl)-2-(6-azaspiro[3.4]octan-6-yl)-5-(2,2,2-trifluoroethyl)oxazole-4-carboxamide], the EC50 in experiment [1] and in experiment [2] (setting [3]) was 0.01 to 1 µM in each case.

For the compound `CC1(C)CCCN1c1nc(C(=O)Nc2cc(F)c(O[C@@H]3C[C@@H]4C[C@@H]4C3)c(F)c2)c(CC(F)(F)F)o1` [Example 172, N-(4-(cis-bicyclo[3.1.0]hexan-3-yloxy)-3,5-difluorophenyl)-2-(2,2-dimethylpyrrolidin-1-yl)-5-(2,2,2-trifluoroethyl)oxazole-4-carboxamide], the EC50 in experiment [1] and in experiment [2] (setting [3]) was 0.01 to 1 µM in each case.

With `CCC1(CC)CN(c2nc(C(=O)Nc3cc(C)c(O[C@@H]4C[C@@H]5C[C@@H]5C4)c(O)c3)c(CC(F)(F)F)o2)C1` [Example 262, N-(4-(cis-bicyclo[3.1.0]hexan-3-yloxy)-3-hydroxy-5-methylphenyl)-2-(3,3-diethylazetidin-1-yl)-5-(2,2,2-trifluoroethyl)oxazole-4-carboxamide], the EC50 in experiment [1] and in experiment [2] (setting [3]) was 0.01 to 1 µM each time.

`O=C(Nc1ccc(N2CC3CC(C3)C2)c(F)c1)c1nc(N2CCC3(COC3)C2)oc1CC(F)(F)F` [Example 202, N-(4-(3-azabicyclo[3.1.1]heptan-3-yl)-3-fluorophenyl)-2-(2-oxa-6-azaspiro[3.4]octan-6-yl)-5-(2,2,2-trifluoroethyl)oxazole-4-carboxamide]: the EC50 in experiment [1] and in experiment [2] was 0.01 to 1 µM throughout.

With `CC(C)Cc1oc(N2CCCC2)nc1C(=O)Nc1ccc(OC2CCCC2(F)F)c(F)c1` (stereo not drawn) [Example 111, N-(4-((2,2-difluorocyclopentyl)oxy)-3-fluorophenyl)-5-isobutyl-2-(pyrrolidin-1-yl)oxazole-4-carboxamide], the values for the EC50 in experiment [1] and in experiment [2] (setting [3]) were 0.01 to 1 µM and 1 to 10 µM, respectively.

For `O=C(Nc1cc(F)c(N2C3CCCC2CC3)c(F)c1)c1nc(N2CC3COCC3C2)oc1CC(F)(F)F` (stereo not drawn) [Example 201, N-(4-(8-azabicyclo[3.2.1]octan-8-yl)-3,5-difluorophenyl)-2-(tetrahydro-1H-furo[3,4-c]pyrrol-5(3H)-yl)-5-(2,2,2-trifluoroethyl)oxazole-4-carboxamide], the EC50 in experiment [1] and in experiment [2] was 0.01 to 1 µM in each case.

For the compound `O=C(Nc1ccc(O[C@@H]2C[C@@H]3C[C@@H]3C2)c(F)c1)c1nc(N2CCCC2)oc1CC(F)(F)F` [Example 74, N-(4-{cis-bicyclo[3.1.0]hexan-3-yloxy}-3-fluorophenyl)-2-(pyrrolidin-1-yl)-5-(2,2,2-trifluoroethyl)oxazole-4-carboxamide], the EC50 in experiment [1] and in experiment [2] (setting [3]) was 0.01 to 1 µM throughout.

`O=C(Nc1cc(F)c(OC2CC3C[C@H]3C2)c(F)c1)c1nc(N2C[C@H]3CCO[C@H]3C2)oc1CC(F)(F)F` (stereo partly drawn) [Example 179, N-(4-(cis-bicyclo[3.1.0]hexan-3-yloxy)-3,5-difluorophenyl)-2-((3aR,6aR)-hexahydro-5H-furo[2,3-c]pyrrol-5-yl)-5-(2,2,2-trifluoroethyl)oxazole-4-carboxamide]: the EC50 in experiment [1] and in experiment [2] (setting [3]) was 0.01 to 1 µM each time.

For `CCc1oc(N2CC(CC)(OC)C2)nc1C(=O)Nc1cc(F)c(O[C@@H]2C[C@@H]3C[C@@H]3C2)c(F)c1` [Example 238, N-(4-(cis-bicyclo[3.1.0]hexan-3-yloxy)-3,5-difluorophenyl)-5-ethyl-2-(3-ethyl-3-methoxyazetidin-1-yl)oxazole-4-carboxamide], the EC50 in experiment [1] and in experiment [2] (setting [3]) was 0.01 to 1 µM in each case.

Turning to `CCC1(CC)CN(c2nc(C(=O)Nc3cc(F)c(O[C@@H]4C[C@@H]5C[C@@H]5C4)c(F)c3)c(CC(F)(F)F)o2)C1` [Example 183, N-(4-(cis-bicyclo[3.1.0]hexan-3-yloxy)-3,5-difluorophenyl)-2-(3,3-diethylazetidin-1-yl)-5-(2,2,2-trifluoroethyl)oxazole-4-carboxamide], the EC50 in experiment [1] and in experiment [2] (setting [3]) was 0.01 to 1 µM each time.

As to `O=C(Nc1cc(F)c(OC2CC3C[C@@H]3C2)c(F)c1)c1nc(N2CC3CCC3C2)oc1CC(F)(F)F` (stereo partly drawn) [Example 177, N-(4-(cis-bicyclo[3.1.0]hexan-3-yloxy)-3,5-difluorophenyl)-2-(3-azabicyclo[3.2.0]heptan-3-yl)-5-(2,2,2-trifluoroethyl)oxazole-4-carboxamide], the EC50 in experiment [1] and in experiment [2] (setting [3]) was 0.01 to 1 µM in each case.
